According to US10780074B2, “Compounds and uses thereof” (Sunovion Pharmaceuticals Inc., priority 2017, dated 2020):
Where a name gives a salt, the structure may show the parent alone. Read-outs that look alike come from different tables or passages of the source.

Test system: behaviors of compound-treated mice
Assay: Neuropharmacological Assay (SmartCube)
Assay type: in vivo
Details: for minimal effective dose: Mus musculus, ip, 0.25 h, dose having 50% or more total activity in SmartCube, read-out: MED (minimal effective dose)
In short: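 Mice dosed i.p. 15 min before testing, with compound in N-methyl-2-pyrrolidone/PEG/propylene glycol, were video-recorded and algorithmically compared with reference-drug behavioral signatures. This gave class-match probabilities (antidepressant, anxiolytic, etc.) at the most efficacious of 3 doses. MED was defined as the dose with ≥50% total activity, usually tested across 0.3–30 mpk.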

[1] = SmartCube, i.p. 15 min before test, most efficacious dose(s)
[2] = i.p. 15 min before behavioral test, most efficacious dose(s) of 3 doses

Row | Structure (SMILES) | minimal effective dose [mg/kg] | AD: ADHD (probability that activity matches class) [1] | AG: analgesic (probability that activity matches class) [1] | AX: anxiolytic (probability that activity matches class) [1] | CE: cognitive enhancer (probability that activity matches class) [1] | DP: anti-depressant (probability that activity matches class) [1] | MS: mood stabilizer (probability that activity matches class) [1] | PS: anti-psychotic (probability that activity matches class) [1] | SD: sedative hypnotic (probability that activity matches class) [1] | UN: uncharacterized CNS activity (probability that activity matches class) [1] | minimal effective dose (i.p.) [mg/kg] | AD: ADHD (probability that activity matches class) [2] | AG: analgesic (probability that activity matches class) [2] | AX: anxiolytic (probability that activity matches class) [2] | CE: cognitive enhancer (probability that activity matches class) [2] | DP: anti-depressant (probability that activity matches class) [2] | MS: mood stabilizer (probability that activity matches class) [2] | PS: anti-psychotic (probability that activity matches class) [2] | SD: sedative hypnotic (probability that activity matches class) [2] | UN: uncharacterized CNS activity (probability that activity matches class) [2]
1 | CNC[C@H]1OCCc2c1cccc2-n1cccn1 [Compound 187, (S)-1-(5-(1H-pyrazol-1-yl)isochroman-1-yl)-N-methylmethanamine] | 3 to 10 | ++ (5% ≤ ++ <25%) | + (LOQ ≤ + <5%) | + (LOQ ≤ + <5%) | + (LOQ ≤ + <5%) | ++++ (50% ≤ ++++) | + (LOQ ≤ + <5%) | + (LOQ ≤ + <5%) | + (LOQ ≤ + <5%) | + (LOQ ≤ + <5%) |  |  |  |  |  |  |  |  |  | 
2 | CNC[C@@H]1OCCc2c(-c3cocn3)cccc21 [Compound 102, (R)—N-methyl-1-(5-(oxazol-4-yl)isochroman-1-yl)methanamine HCl salt] |  |  |  |  |  |  |  |  |  |  | 10 to 30 | + (LOQ ≤ + <5%) | + (LOQ ≤ + <5%) | ++ (5% ≤ ++ <25%) | + (LOQ ≤ + <5%) | + (LOQ ≤ + <5%) | + (LOQ ≤ + <5%) | + (LOQ ≤ + <5%) | + (LOQ ≤ + <5%) | + (LOQ ≤ + <5%)
3 | CNC[C@@H]1OCCc2c(-c3cncnc3)cccc21 (single isomer, unassigned) [Compound 29, hydrochloride salt] |  |  |  |  |  |  |  |  |  |  | > 30 | + (LOQ ≤ + <5%) | + (LOQ ≤ + <5%) | + (LOQ ≤ + <5%) | + (LOQ ≤ + <5%) | + (LOQ ≤ + <5%) | + (LOQ ≤ + <5%) | + (LOQ ≤ + <5%) | + (LOQ ≤ + <5%) | + (LOQ ≤ + <5%)
4 | CNC[C@H]1OCCc2cccc(-c3cccnc3)c21 [Compound 2, (S)-N-Methyl-1-(8-(pyridin-3-yl)isochroman-1-yl)methanamine bis-hydrochloride] |  |  |  |  |  |  |  |  |  |  | > 30 | + (LOQ ≤ + <5%) | + (LOQ ≤ + <5%) | + (LOQ ≤ + <5%) | + (LOQ ≤ + <5%) | + (LOQ ≤ + <5%) | + (LOQ ≤ + <5%) | + (LOQ ≤ + <5%) | + (LOQ ≤ + <5%) | + (LOQ ≤ + <5%)
5 | NC[C@@H]1OCCc2c(-c3cn[nH]c3)cccc21 [Compound 116, (R)-(5-(1H-pyrazol-4-yl)isochroman-1-yl)methanamine hydrochloride salt] |  |  |  |  |  |  |  |  |  |  | 3 to 10 | + (LOQ ≤ + <5%) | + (LOQ ≤ + <5%) | ++ (5% ≤ ++ <25%) | + (LOQ ≤ + <5%) | ++++ (50% ≤ ++++) | + (LOQ ≤ + <5%) | ++ (5% ≤ ++ <25%) | + (LOQ ≤ + <5%) | ++ (5% ≤ ++ <25%)
6 | CNC[C@H]1OCCc2c(-c3ncccn3)cccc21 [Compound 23, (S)—N-Methyl-1-(5-(pyrimidin-2-yl)isochroman-1-yl)methanamine hydrochloride salt] |  |  |  |  |  |  |  |  |  |  | 10 to 30 | ++ (5% ≤ ++ <25%) | ++ (5% ≤ ++ <25%) | ++ (5% ≤ ++ <25%) | + (LOQ ≤ + <5%) | ++++ (50% ≤ ++++) | + (LOQ ≤ + <5%) | + (LOQ ≤ + <5%) | + (LOQ ≤ + <5%) | + (LOQ ≤ + <5%)
7 | NC[C@@H]1OCCc2c(-c3cnco3)cccc21 (single isomer, unassigned) [Compound 98, hydrochloride salt] |  |  |  |  |  |  |  |  |  |  | ≤ 3 | ++ (5% ≤ ++ <25%) | + (LOQ ≤ + <5%) | ++ (5% ≤ ++ <25%) | + (LOQ ≤ + <5%) | ++++ (50% ≤ ++++) | + (LOQ ≤ + <5%) | + (LOQ ≤ + <5%) | + (LOQ ≤ + <5%) | + (LOQ ≤ + <5%)
8 | CNC[C@@H]1OCCc2c(-c3ccon3)cccc21 (single isomer, unassigned) [Compound 90, hydrochloride salt] |  |  |  |  |  |  |  |  |  |  | 10 to 30 | + (LOQ ≤ + <5%) | + (LOQ ≤ + <5%) | ++ (5% ≤ ++ <25%) | + (LOQ ≤ + <5%) | + (LOQ ≤ + <5%) | + (LOQ ≤ + <5%) | + (LOQ ≤ + <5%) | + (LOQ ≤ + <5%) | + (LOQ ≤ + <5%)
9 | CNC[C@@H]1OCCc2c(-c3ccnnc3)cccc21 (single isomer, unassigned) [Compound 76, hydrochloride salt] |  |  |  |  |  |  |  |  |  |  | 3 to 10 | + (LOQ ≤ + <5%) | ++ (5% ≤ ++ <25%) | ++ (5% ≤ ++ <25%) | + (LOQ ≤ + <5%) | + (LOQ ≤ + <5%) | + (LOQ ≤ + <5%) | + (LOQ ≤ + <5%) | + (LOQ ≤ + <5%) | + (LOQ ≤ + <5%)
